Assay [1] concerns the target T1, West Nile Virus (WNV) NS2B-NS3 protease (West Nile virus, UniProt Q9Q6P4).
T1 construct: NS2B1423-1470); purchased R&D 2907-SE-020
As to the kind of experiment: WNV protease inhibition assay. It counts as biochemical. The settings on record: Table 4; letter codes for IC50. The text has this: WNV protease inhibition assay

Assay [2] concerns ZIKV replicon. In words: ZIKV replication inhibition assay (NanoLuc replicon in Vero cells). To be noted: 72 h. A general note: In antiviral work, replicon cells carry a viral genome segment that copies itself.
[3] abbreviates: Zika virus, Vero, read-out: ZIKA Cell_Nanoluc, Vero cells with stable ZIKV replicon, 72 h, Nano-Glo readout.
[4] abbreviates: Zika virus, Vero, read-out: ZIKA Cell_Nanoluc.
Setting [5] is: read-out: ZIKA Cell_Nanoluc, Vero cells with stable ZIKV replicon, Nano-Glo readout.

Where two headings read alike, the source gives them in different places.

These results are taken from EP4563146A1 (IRBM S.P.A., priority 2023, dated 2025).

T1 sequence (Q9Q6P4 1423-1470): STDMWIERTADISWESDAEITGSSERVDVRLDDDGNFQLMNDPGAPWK
T1 sequence (Q9Q6P4 1506-1689): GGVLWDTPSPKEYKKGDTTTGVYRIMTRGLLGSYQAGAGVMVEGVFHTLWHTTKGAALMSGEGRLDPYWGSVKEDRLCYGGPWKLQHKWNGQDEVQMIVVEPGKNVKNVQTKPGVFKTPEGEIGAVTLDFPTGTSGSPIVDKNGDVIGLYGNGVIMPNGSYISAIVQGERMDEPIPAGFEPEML

By IC50 is commonly meant the concentration at which inhibition is half-maximal. Read a low IC50 as greater potency in that assay. Take `Cc1ccccc1CC(=O)Nc1cc(NC(=O)[N-]c2c[n+]([C@@H]3CCCC[C@@H]3N(C)C)no2)cc(C(F)(F)F)c1` (racemic) [Example 244, rac-(3-((1R,2S)-2-(Dimethylamino)cyclohexyl)-1,2,3-oxadiazol-3-ium-5-yl)((3-(2-(o-tolyl)acetamido)-5-(trifluoromethyl)phenyl)-carbamoyl)amide]: in assay [1], the IC50 lay in the range of 100 to 1000 nM. The EC50 in assay [2] (setting [3]) was 1000 to 20000 nM.
For `CNC(=O)[C@H]1CCC[C@@H]([n+]2cc([N-]C(=O)Nc3cc(NC(=O)Cc4ccccc4C)cc(C(F)(F)F)c3)on2)C1` (racemic) [Example 245, rac-(3-((1R,3S)-3-(Methylcarbamoyl)cyclohexyl)-1,2,3-oxadiazol-3-ium-5-yl)((3-(2-(o-tolyl)acetamido)-5-(trifluoromethyl)phenyl)carbamoyl)amide] the same measures were 100 to 1000 nM and 1000 to 20000 nM.
Turning to `CNC(=O)[C@@H]1CCC[C@@H]([n+]2cc([N-]C(=O)Nc3cc(NC(=O)Cc4ccccc4C)cc(C(F)(F)F)c3)on2)C1` (racemic) [Example 252, rac-(3-((1R,3R)-3-(Methylcarbamoyl)-cyclohexyl)-1,2,3-oxadiazol-3-ium-5-yl)((3-(2-(o-tolyl)-acetamido)-5-(trifluoromethyl)phenyl)-carbamoyl)amide], the IC50 in assay [1] was in the range of 100 to 1000 nM. Further, in assay [2] (setting [3]), the EC50 was in the range of 1000 to 20000 nM.
The matching figures for `Cc1ccccc1CC(=O)Nc1cc(NC(=O)[N-]c2c[n+]([C@@H]3CCC[C@H](C(=O)N(C)C)C3)no2)cc(C(F)(F)F)c1` (racemic) [Example 253, rac-(3-((1R,3S)-3-(Dimethylcarbamoyl)-cyclohexyl)-1,2,3-oxadiazol-3-ium-5-yl)((3-(2-(o-tolyl)-acetamido)-5-(trifluoromethyl)phenyl)-carbamoyl)amide]: 100 to 1000 nM and 1000 to 20000 nM.
`Cc1ncnc(C)c1-c1ccc(C[n+]2cc([N-]C(=O)N[C@@H]3CC[C@@H](C(F)(F)F)C3)on2)cc1` (racemic) [Example 256, (3-((4-(4,6-Dimethylpyrimidin-5-yl)phenyl)methyl)oxadiazol-3-ium-5-yl)-((rac-(1R,3R)-3-(trifluoromethyl)cyclopentyl)-carbamoyl)azanide] displayed an IC50 in assay [1] of 100 to 1000 nM. For the same compound, in assay [2] (setting [4]), the EC50 lay within 1000 to 20000 nM.
For `CN(C)C[C@H]1CC[C@H]([n+]2cc([N-]C(=O)Nc3cc(NC(=O)[C@@H](F)c4ccccc4F)cc(C(F)(F)F)c3)on2)CC1` (single isomer, unassigned) [Example 243] the same measures were below 100 nM and 100 to 1000 nM.
For `CN(C)C[C@H]1CC[C@H]([n+]2cc([N-]C(=O)Nc3cc(NC(=O)[C@H](F)c4ccccc4F)cc(C(F)(F)F)c3)on2)CC1` (single isomer, unassigned) [Example 271] the same measures were below 100 nM and 100 to 1000 nM.
`Cc1ccccc1CC(=O)Nc1cc(NC(=O)[N-]c2c[n+]([C@H]3CCC[C@@H](CN(C)C)C3)no2)cc(C(F)(F)F)c1` (stereo in doubt) [Example 246, rac-(3-((1S,3R)-3-((Dimethylamino)methyl)-cyclohexyl)-1,2,3-oxadiazol-3-ium-5-yl)((3-(2-(o-tolyl)acetamido)-5-(trifluoromethyl)phenyl)-carbamoyl)amide] returned an IC50 in assay [1] below 100 nM. Also, in assay [2] (setting [3]), the EC50 is 1000 to 20000 nM.
The matching figures for `Cc1ccccc1CC(=O)Nc1cc(NC(=O)[N-]c2c[n+]([C@@H]3CCC[C@H](CN(C)C)C3)no2)cc(C(F)(F)F)c1` (stereo in doubt) [Example 247, rac-(3-((1R,3S)-3-((Dimethylamino)methyl)-cyclohexyl)-1,2,3-oxadiazol-3-ium-5-yl)((3-(2-(o-tolyl)acetamido)-5-(trifluoromethyl)phenyl)-carbamoyl)amide]: 100 to 1000 nM and 1000 to 20000 nM.
As for `COc1ncc(-c2ccc(C[n+]3cc([N-]C(=O)Nc4cc(NC(=O)Cc5ccccc5)cc(C(F)(F)F)c4)on3)cc2)c(C)n1` [Example 1, (3-(4-(2-Methoxy-4-methylpyrimidin-5-yl)benzyl)-1,2,3-oxadiazol-3-ium-5-yl)((3-(2-phenylacetamido)-5-(trifluoromethyl)phenyl)carbamoyl)amide], the IC50 in assay [1] lay within 1000 to 20000 nM. Also, the EC50 in assay [2] (setting [3]) lay within 1000 to 20000 nM.
Consider `CN(C)C[C@H]1CC[C@H]([n+]2cc([N-]C(=O)Nc3cc(N4CCC(c5ccccc5)C4=O)cc(C(F)(F)F)c3)on2)CC1` (stereo partly drawn) [Example 148, (3-((1R,4R)-4-((Dimethylamino)methyl)-cyclohexyl)-1,2,3-oxadiazol-3-ium-5-yl)((3-(2-oxo-3-phenylpyrrolidin-1-yl)-5-(trifluoromethyl)-phenyl)carbamoyl)amide], for which the IC50 in assay [1] is 100 to 1000 nM. Also, the EC50 in assay [2] (setting [4]) lay within 1000 to 20000 nM.
For the compound `CN(C)C[C@H]1CC[C@H]([n+]2cc([N-]C(=O)Nc3cc(NC(=O)CS(=O)(=O)c4ccccc4)cc(C(F)(F)F)c3)on2)CC1` [Example 151, (3-((1R,4R)-4-((Dimethylamino)methyl)-cyclohexyl)-1,2,3-oxadiazol-3-ium-5-yl)((3-(2-(phenylsulfonyl)acetamido)-5-(trifluoromethyl)phenyl)carbamoyl)amide], the half-inhibitory concentration (IC50) in assay [1] lay within 100 to 1000 nM. In addition, the EC50 in assay [2] (setting [5]) was in the range of 1000 to 20000 nM.
For `COc1ccccc1CC(=O)Nc1cc(NC(=O)[N-]c2c[n+](C3CCC(CN(C)C)CC3)no2)cc(C(F)(F)F)c1` [Example 153, (3-((1R,4R)-4-((Dimethylamino)methyl)-cyclohexyl)-1,2,3-oxadiazol-3-ium-5-yl)((3-(2-(2-methoxyphenyl)acetamido)-5-(trifluoromethyl)-phenyl)carbamoyl)amide] the same measures were 100 to 1000 nM and 1000 to 20000 nM.
The matching figures for `CN(C)C[C@H]1CC[C@H]([n+]2cc([N-]C(=O)Nc3cc(NC(=O)Cc4ccc(C(=O)O)cc4)cc(C(F)(F)F)c3)on2)CC1` [Example 156, ((3-(2-(4-Carboxyphenyl)acetamido)-5-(trifluoromethyl)phenyl)carbamoyl)(3-((1R,4R)-4-((dimethylamino)methyl)cyclohexyl)-1,2,3-oxadiazol-3-ium-5-yl)amide]: 1000 to 20000 nM and 1000 to 20000 nM.
The matching figures for `CN(C)C[C@H]1CC[C@H]([n+]2cc([N-]C(=O)Nc3cc(NC(=O)CCc4cn(C)c5ccccc45)cc(C(F)(F)F)c3)on2)CC1` [Example 157, (3-((1R,4R)-4-((Dimethylamino)methyl)-cyclohexyl)-1,2,3-oxadiazol-3-ium-5-yl)((3-(3-(1-methyl-1H-indol-3-yl)propanamido)-5-(trifluoromethyl)phenyl)carbamoyl)amide]: below 100 nM and 1000 to 20000 nM.
In assay [1], `CN(C)CC1CCC([n+]2cc([N-]C(=O)Nc3cc(NC(=O)CCc4cnccn4)cc(C(F)(F)F)c3)on2)CC1` [Example 158, (3-((1R,4R)-4-((Dimethylamino)methyl)-cyclohexyl)-1,2,3-oxadiazol-3-ium-5-yl)((3-(3-(pyrazin-2-yl)propanamido)-5-(trifluoromethyl-)phenyl)carbamoyl)amide] yielded an IC50 of 1000 to 20000 nM. Further, in assay [2] (setting [5]), the EC50 is above 20000 nM.
`CN(C)CC1CCC([n+]2cc([N-]C(=O)Nc3cc(NC(=O)Cc4ccccc4C(=O)O)cc(C(F)(F)F)c3)on2)CC1` [Example 159, ((3-(2-(2-Carboxyphenyl)acetamido)-5-(trifluoromethyl)phenyl)carbamoyl)(3-((1R,4R)-4-((dimethylamino)methyl)cyclohexyl)-1,2,3-oxadiazol-3-ium-5-yl)amide] had an IC50 in assay [1] below 100 nM. Also, the EC50 in assay [2] (setting [5]) lay within 1000 to 20000 nM.
On to `CN(C)C[C@H]1CC[C@H]([n+]2cc([N-]C(=O)Nc3cc(NC(=O)C(F)(F)CN4CCCC4)cc(C(F)(F)F)c3)on2)CC1` [Example 160, ((3-(2,2-Difluoro-3-(pyrrolidin-1-yl)propanamido)-5-(trifluoromethyl)phenyl)-carbamoyl)(3-((1R,4R)-4-((dimethylamino)-methyl)cyclohexyl)-1,2,3-oxadiazol-3-ium-5-yl)amide], for which, in assay [1], the IC50 was 1000 to 20000 nM. Further, in assay [2] (setting [4]), the EC50 was above 20000 nM.
For `CN(C)C[C@H]1CC[C@H]([n+]2cc([N-]C(=O)Nc3cc(NC(=O)Cc4cn(C)c5ccccc45)cc(C(F)(F)F)c3)on2)CC1` [Example 161, (3-((1R,4R)-4-((dimethylamino)methyl)-cyclohexyl)-1,2,3-oxadiazol-3-ium-5-yl)((3-(2-(1-methyl-1H-indol-3-yl)acetamido)-5-(trifluoromethyl)phenyl)carbamoyl)amide] the same measures were 100 to 1000 nM and 1000 to 20000 nM.
The matching figures for `CN(C)C[C@H]1CC[C@H]([n+]2cc([N-]C(=O)Nc3cc(NC(=O)Cc4cccc(CC(N)=O)c4)cc(C(F)(F)F)c3)on2)CC1` [Example 162, ((3-(2-(3-(2-Amino-2-oxoethyl)phenyl)-acetamido)-5-(trifluoromethyl)phenyl)-carbamoyl)(3-((1R,4R)-4-((dimethylamino)-methyl)cyclohexyl)-1,2,3-oxadiazol-3-ium-5-yl)amide]: 100 to 1000 nM and 1000 to 20000 nM.
For `CN(C)C[C@H]1CC[C@H]([n+]2cc([N-]C(=O)Nc3cc(NC(=O)Cc4cccc(CN)c4)cc(C(F)(F)F)c3)on2)CC1` [Example 163, ((3-(2-(3-(Aminomethyl)phenyl)acetamido)-5-(trifluoromethyl)phenyl)carbamoyl)(3-((1R,4R)-4-((dimethylamino)methyl)cyclohexyl)-1,2,3-oxadiazol-3-ium-5-yl)amide] the same measures were 100 to 1000 nM and 1000 to 20000 nM.
`CC(C(=O)Nc1cc(NC(=O)[N-]c2c[n+]([C@H]3CC[C@H](CN(C)C)CC3)no2)cc(C(F)(F)F)c1)c1ccccc1` (stereo partly drawn) [Example 164, (3-((1R,4R)-4-((Dimethylamino)methyl)-cyclohexyl)-1,2,3-oxadiazol-3-ium-5-yl)((3-(2-phenylpropanamido)-5-(trifluoromethyl)phenyl)-carbamoyl)amide]: the IC50 in assay [1] was below 100 nM. The EC50 in assay [2] (setting [4]) lay within 100 to 1000 nM.
